Measurements taken from patent publication US11129835B2, “Methods and compositions for the inhibition of PIN1” (Beth Israel Deaconess Medical Center, Inc., priority 2012, dated 2021).
Square brackets hold non-standard residues; d marks the D form. Peptide text beside a SMILES is read from it. pT = C[C@@H](OP(=O)(O)O)[C@H](N)C(=O)O; 2Nal = N[C@@H](Cc1ccc2ccccc2c1)C(=O)O; Bta = N[C@@H](Cc1csc2ccccc12)C(=O)O; Pip = O=C(O)[C@@H]1CCCCN1

Assays:
Pin1 [1] = target: T1, Pin1 (Homo sapiens, UniProt Q13526); assay: Pin1 fluorescence polarization competition assay with Tamra-probe (secondary)
T1 sequence (Q13526 whole entry): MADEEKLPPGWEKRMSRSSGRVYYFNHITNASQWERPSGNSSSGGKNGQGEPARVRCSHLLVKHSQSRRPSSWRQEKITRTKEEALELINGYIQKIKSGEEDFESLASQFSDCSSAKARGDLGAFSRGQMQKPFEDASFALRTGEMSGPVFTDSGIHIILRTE
Description: An assay was developed for the identification of inhibitors of Pin1. […] Candidate compounds were screened in a concentration-titration series (e.g., 57 μM to 0.7 nM).
(§3) Pin1 (0.6 μM) was dispensed into black, solid 1536-well plates (32 rows by 48 columns) at 2 μL/well in Pin1 buffer (10 mM HEPES (pH 7.5), 10 mM NaCl, 0.01% Tween20, 1 mM DTT, and 1% glycerol). Next, 23 nL of compound or DMSO was delivered to each well using a pin tool (tip wash sequence: DMSO, IPA, MeOH, 3 s vacuum dry). Two μL of Pin1-1b-HiFluor488 peptide in buffer (10 mM HEPES (pH 7.5), 10 mM NaCl, 0.01% Tween20, 1 mM DTT, and 1% glycerol, 0.02 μM Pin1-1b-HiFluor488) or DMSO was then dispensed to each well using a pin tool (tip wash sequence: DMSO, IPA, MeOH, 3 s vacuum dry), and plates were incubated at room temperature for 10 min (Table 2). Each plate included controls with no candidate inhibitory compound (32 wells), with unlabeled Pin1-1c titration (3.5 mM to 0.020 mM in a 1:2 dilution series including 2 replicates per concentration; 32 wells), and without Pin1 (64 wells).
(§4) The fluorescence polarization signal of each well was measured on a ViewLux® plate reader using a 480/20 nm excitation filter and 540/25 nm S and P emission filters with a 20 second exposure with 2× binning (Table 2). Percent inhibitory activity was determined from corrected fluorescence polarization values.
(§5) Concentration-response curves were fitted to the signals arising from the resulting fluorescence polarization. The concentration-effect curves were then classified based on curve quality (r^2), response magnitude, and degree of measured activity. Compounds were subsequently categorized based on their curve class.
A further secondary assessment was accomplished by replacing the HiFluor-488-labeled probe with Tamra-probe, a red-shifted fluorophore.

Pin1 [2] = target: T1, Pin1; assay: confirmatory Pin1 fluorescence polarization competition assay (Alexa488 reconfirmed);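 also: Pin1 competition with a HiFluor488-labelled peptide probe, read as fluorescence polarization after 10 min at room temperature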
Description: (§6) The goal of this assay was to identify small-molecule inhibitors of Pin1 using a fluorescence polarization competition assay (FIG. 1). […] Candidate compounds were screened in a concentration-titration series (e.g., 57 μM to 0.7 nM).
as §3, §4, §5

Pin1 [3] = target: T1, Pin1; assay: Pin1 fluorescence polarization competition assay, primary qHTS (HiFluor-488 / Alexa488 probe);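 also: Pin1 protein with fluorescent peptide probe, compound displacement read by fluorescence polarization, percent inhibition derived from corrected polarization values, concentration-response curves in 1536-well format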
Description: as §6, §3, §4, §5
Curves showing change polarized fluorescence may be categorized into 5 classes. Class 1 includes complete curves, having 2 asymptotes and an r^2 value of ≥0.9, with an efficacy of either >80% (class 1.1) or ≤80% (class 1.2). Class 1 curves may also be classified as noisy curves when efficacy is >80% and r^2<0.9 (class 1.3) or when efficacy is ≤80% and r^2<0.9 (class 1.4). Class 2 includes incomplete curves having 1 asymptote and an r^2 value of either >0.9 (subclass a) or <0.9 (subclass b), with an efficacy of either >80% (class 2.1) or ≤80% (class 2.2). Class 2 curves may also be classified as noisy curves when efficacy is >80% and r^2<0.9 (class 2.3) or when efficacy is ≤80% and r^2<0.9 (class 2.4). Class 3 includes single point activity curves having 1 asymptote and an efficacy >3 SD from the mean activity of the sample field at the highest tested concentration. […] A fifth class captures any curves not otherwise classified (FIG. 4).

Pin1 and DAPK1 = Pin1 and DAPK1 (Homo sapiens, UniProt Q13526); assay: association between Pin1 and DAPK1; format: binding
Pin1 and DAPK1, sequence (Q13526 whole entry): as above

full length Pin1 = target: T2, full length Pin1 (Homo sapiens, UniProt Q13526); assay: single-step fluorescence polarization-based displacement assay (FP-HTS), 384-well, HF488 probe; format: binding; conditions: for Pin1 inhibition in the FP assay: cis-RA compared with trans-RA
T2 construct: FP-HTS in a 384-well plate format with full length Pin1
T2 sequence (Q13526 whole entry): as above
Description: A high-throughput screen for identifying Pin1 inhibitors was developed using a single-step fluorescence polarization-based displacement assay (FP-HTS).
The FP-HTS with a 5 nM probe and 200 nM Pin1 was used to conduct a pilot screen on a selected set of chemical libraries.
(§1) The anti-cancer effect of RAs was examined to determine whether it depends on RAR in the breast cancer cells.

breast cancer cells = assay: RARa knockdown rescue of cis-RA-mediated cell death; format: cell-based
Description: as §1

T47D = assay: cell viability of breast cancer cell lines; format: cell-based
Description: (§2) This discrepancy between cell lines was correlated with the RAs' ability to suppress Pin1 expression. Pin1 level was decreased by treatment of RAs in drugs-responsive SKBR3 and T47D, but not in drugs-irresponsive normal cells, MCF10A, in which Pin1 target protein, cyclin D1, served as biomarker of in vivo Pin1 activity.

SKBR3 = assay: cell viability of breast cancer cell lines; format: cell-based
Description: as §2

Pin1 [4] = target: T1, Pin1; assay: PPIase assay; format: biochemical
Description: The anti-cancer effect of RAs was examined to determine whether it depends on RAR in the breast cancer cells. […] In the PPIase assay, Pin1 activity was blocked by either cis- or trans-RA in a dose-dependent manner.

MCF10A = assay: cell viability, normal cell line; format: cell-based
Description: as §2

[5] = test system: mouse embryonic fibroblast (WT MEF, Pin1 KO MEF); assay: trans-RA-mediated cell viability in WT and Pin1 knockout MEF; format: cell-based
Description: To further confirm this premise, wild-type mouse embryonic fibroblast (WT MEF) and Pin1 knockout MEF (Pin1 KO MEF) were used to test trans-RA-mediated cell viability.

[6] = test system: Pin1 K63A, S67E, R68/69A, H59A or S71E; assay: trans-RA binding to Pin1 point mutants

`COc1cc(C(c2c(C(=O)O)[nH]c3ccccc23)c2c(C(=O)O)[nH]c3ccccc23)ccc1OCc1ccccc1` [Compound 47] gave an IC50 (Pin1 [1]) of 21 µM, an Emax (Pin1 [1]; read-out: Tamra Secondary Efficacy) of 91% and an IC50 (Pin1 [2]) of 19 µM. For the same molecule, the “Alexa488 Reconfirmed Curve Class” value (Pin1 [2]; confirmatory retest) was 2.2 (≤80% (class 2.2)), the Emax (Pin1 [2]; read-out: Alexa488 Reconfirmed Efficacy) was 84% and the IC50 (Pin1 [3]; Alexa488 Primary Potency, primary qHTS) was 79 µM. The IC50 (Pin1 [3]; Average HTS Potency, average over Alexa488 primary, Alexa488 reconfirmed and Tamra secondary assays) was 40 µM, the “Alexa488 Primary Curve Class” value (Pin1 [3]; primary qHTS) was 1.2 (≤80% (class 1.2)) and the Emax (Pin1 [3]; read-out: Alexa488 Primary Efficacy) was 26%. It also gave an Emax (Pin1 [3]; read-out: Average HTS Efficacy) of 67%.

With `CC1=C(/C=C/C(C)=C/C=C/C(C)=C\C(=O)O)C(C)(C)CCC1` [cis-RA, 13-cis-retinoic acid] the “association between Pin1 and DAPK1” value (Pin1 and DAPK1) was “blocked the association between Pin1 and DAPK1 in a dose-dependent manner”, the “pilot screen hit ranking by Z-score” value (full length Pin1; 5 nM probe and 200 nM Pin1) was “top inhibitory chemical” and the “Pin1 inhibition in the FP assay” value (full length Pin1) was “eventually catch up with trans-RA in the long-term incubation with Pin1”. For the same molecule, the “cell death after RARa knockdown” value (breast cancer cells) was “only partially rescue”, the “IC50, cell viability” value (T47D) was “nano-molar range” and the “IC50, cell viability” value (SKBR3) was “nano-molar range”. The “Pin1 activity in the PPIase assay” value (Pin1 [4]) was “blocked” and the cell viability (MCF10A) was “remained unaffected”.

In the case of `C[C@@H](OP(=O)(O)O)[C@H](NC(=O)[C@@H](N)Cc1csc2ccccc12)C(=O)N1CCCC[C@H]1C(=O)N[C@@H](Cc1ccc2ccccc2c1)C(=O)O` [pTide, Bth-L-phos.Thr-Pip-Nal] (H-[Bta][pT][Pip][2Nal]-OH; N-terminus and C-terminus assumed), the “displacement of HF488 probe from Pin1” value (full length Pin1) is reported as “displaced HF488 probe from Pin1” and the Kd (full length Pin1; four residue core structure (pTide) of the HF488 fluorescent probes) is reported as 0.258 µM.

In the case of `CC1=C(/C=C/C(C)=C/C=C/C(C)=C/C(=O)O)C(C)(C)CCC1` [trans-RA, all-trans retinoic acid], the “association between Pin1 and DAPK1” value (Pin1 and DAPK1) is reported as “blocked the association between Pin1 and DAPK1 in a dose-dependent manner, with trans being more potent”, the “Pin1 inhibition in the FP assay” value (full length Pin1) is reported as “even more prominent Pin1 inhibition than cis-RA” and the “cell viability, Pin1 KO MEF versus WT MEF” value [5] is reported as “Pin1 KO MEF was more resistant to trans-RA than WT MEF”. For the same molecule, the “cell viability, Pin1 KO MEF re-expressing Pin1” value ([5]; stably expressing WT Pin1 or W34 K63A Pin1 mutant) was “Pin1 KO MEF stably expressing WT Pin1, but not W34 K63A Pin1 mutant, enabled cells to re-sensitize trans-RA”, the “IC50, cell viability” value (T47D) was “nano-molar range” and the “IC50, cell viability” value (SKBR3) was “nano-molar range”. The “Pin1 activity in the PPIase assay” value (Pin1 [4]) was “blocked”, the “binding to Pin1 point mutants” value [6] was “completely or significantly abolished” and the cell viability (MCF10A) was “remained unaffected”.
